The values that follow come from US20030086923A1, “Method for the prevention and/or treatment of atherosclerosis” (priority 1999, published 2003).

In one test the target is T1, human GST-LXRα receptor (Homo sapiens, UniProt Q13133).
T1 construct: made in house; host or cells: E. coli (pGEX-KT vector)
T1 sequence (Q13133 164-447): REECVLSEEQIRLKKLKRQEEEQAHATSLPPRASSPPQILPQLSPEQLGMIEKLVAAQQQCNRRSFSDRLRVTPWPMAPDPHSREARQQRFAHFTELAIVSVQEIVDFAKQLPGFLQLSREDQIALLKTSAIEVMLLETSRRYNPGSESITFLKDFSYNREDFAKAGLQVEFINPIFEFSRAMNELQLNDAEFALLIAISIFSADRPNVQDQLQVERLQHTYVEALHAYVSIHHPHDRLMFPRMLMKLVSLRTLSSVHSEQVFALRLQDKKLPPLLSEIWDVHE
In words: Radioligand competition binding scintillation proximity assay, LXRα. The text has this: Radioligand Competition Binding Scintillation Proximity Assays:
Preparation of Recombinant Human LXRα and LXRβ:
Human LXRα and LXRβ were expressed as GST-fusion proteins in E. coli. The ligand binding domain cDNAs for human LXRα (amino acids 164-447) and human LXRβ (amino acids 149-455) were subcloned into the pGEX-KT expression vector (Pharmacia). E. coli containing the respective plasmids were propagated, induced, and harvested by centrifugation. The resuspended pellet was broken in a French press and debris was removed by centrifugation. Recombinant human LXR receptors were purified by affinity chromatography on glutathione sepharose and receptor was eluted with glutathione. Glycerol was added to a final concentration of 50% to stabilize the receptor and aliquots were stored at −80° C.
After incubation for ˜16 h at 15° C. with shaking, the assay plates were counted in a Packard Topcount.
For orientation: Loss of bound radioactivity is the signal in a displacement assay; it reports binding, not function.

In another test the target is T2, human PPARδ (Homo sapiens, UniProt Q03181).
T2 sequence (Q03181 1-441): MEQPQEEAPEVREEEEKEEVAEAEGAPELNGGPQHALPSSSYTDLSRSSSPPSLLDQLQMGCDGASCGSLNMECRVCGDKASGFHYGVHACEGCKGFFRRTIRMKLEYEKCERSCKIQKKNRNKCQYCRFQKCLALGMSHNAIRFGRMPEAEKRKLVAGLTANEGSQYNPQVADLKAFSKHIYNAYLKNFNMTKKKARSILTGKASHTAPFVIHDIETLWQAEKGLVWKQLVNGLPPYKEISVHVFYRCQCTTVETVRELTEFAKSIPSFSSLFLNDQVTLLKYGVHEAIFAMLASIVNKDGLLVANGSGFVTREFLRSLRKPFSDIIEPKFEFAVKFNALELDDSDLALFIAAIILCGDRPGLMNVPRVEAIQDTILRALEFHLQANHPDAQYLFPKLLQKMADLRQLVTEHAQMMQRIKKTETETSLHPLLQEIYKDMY
In words: PPARδ competition binding assay. An excerpt: The term ligand throughout this application should be understood to include an agonist, partial agonist or antagonist of LXR. The ligand may be selective for LXRα or LXRβ, or it may have mixed binding affinity for both LXRα and LXRβ. Particularly, compounds within the scope of this invention include those which have greater selectivity as determined by binding affinity for LXRα and/or LXRβ receptors than they have for each of the PPARα, γ and δ receptors.

A further test relates to THP-1 macrophages. The test is described as follows: Stimulation of cholesterol efflux from cultured THP-1 macrophages. Format: cell-based, human. The note with it: 24 hours, 10 μg/ml apoA-I acceptor, mean±SEM, DMSO control 9.9 ± 0.5. An excerpt:
Stimulation of Cholesterol Efflux from Cultured Cells
Patients with Tangier disease have mutations in the ABC1 gene and have very low HDL levels. Cultured cells from these patients are defective in cholesterol efflux (Francis et al. (1995) J. Clin. Invest. 96:78-87). Therefore, induction of ABC1 mRNA should lead to increased cholesterol efflux and increased HDL levels (Francis et al. (1999) Clinica Chimica Acta 286:219-230). TIIP-1 cells were used to determine whether induction of ABC1 mRNA by Compound 1 would increase cholesterol efflux. Specifically, cultured human THP-1 cells were stimulated to differentiate into macrophages by incubation with 100 nM tetradecanoyl phorbol acetate for three days, as described above. After differentiation, the TUP-1 macrophages were labeled with ^3H-cholesterol by incubation for 24 hours with 10 μCi/ml ^3H-cholesterol in Complete RPMI media containing 0.1% lipid-free bovine serum albumin (BSA) plus 100 nM tetradecanoyl phorbol acetate. After labeling, the cells were incubated for 24 hours in Complete RPMI media with 0.1% lipid-free bovine serum albumin (BSA) to allow for equilibration of cellular cholesterol pools. Cholesterol efflux was then measured over the following 24 hours by incubating the cells in Complete RPMI media containing 10 μg/ml of apoA-I as cholesterol acceptor, and either Compound 1 or DMSO as control.

Test [1] has as its system cholesterol-loaded THP-1 macrophages. The test is described as follows: Stimulation of cholesterol efflux from cholesterol-loaded THP-1 macrophages. Format: cell-based, human. The note with it: 1 μM, 24 hours, mean±SEM. An excerpt: Stimulation of Cholesterol Efflux from Cholesterol-Loaded Cells
To determine if LXR agonists could increase cholesterol efflux in cells that were loaded with excess cholesterol, THP-1 cells were loaded with cholesterol using acetylated LDL prior to the assay of cholesterol efflux Specifically, cultured human THP-1 cells were stimulated to differentiate into macrophages as described above. After differentiation, the THP-1 macrophages were loaded with cholesterol and simultaneously labeled with ^3H-cholesterol using acetylated LDL containing ^3H-cholesterol essentially as described by Kritharides et al. (1998) Arterioscler Thromb Vasc Biol. 18:1589-1599. After 24 hours of incubation with 100 μg/ml of acetylated LDL labelled with ^3H-cholesterol, the cells were incubated in Complete RPMI medium containing 0.1% lipid-free BSA for 24 hours to allow for equilibration of cellular cholesterol pools. Cholesterol efflux was then measured over the following 24 hours by incubating the cells in Complete RPMI medium with either apoA-I or HDL as cholesterol acceptor, and with either 1 μM Compound 1 or DMSO as control.

As usually defined, the IC50 is the concentration needed to halve the response being measured. A high value points to weaker potency in that assay. The term Ki denotes the dissociation constant of the complex between target and ligand, obtained from inhibition or displacement. Consider `CC(=O)Oc1ccc2c(c1)[C@@]1(C)CCC[C@](C)(C(=O)OC(=O)[C@@]3(C)CCC[C@]4(C)c5cc(OC(C)=O)ccc5CC[C@@H]34)[C@@H]1CC2` [Compound 1], for which the IC50 was 80 nM on human GST-LXRα receptor and more than 10000 nM on human PPARδ. The Ki at human GST-LXRα receptor (read-out: LXRα calculated Ki) was approximately 30 nM. Besides, the “Cholesterol efflux (% of cell contents)” value in the test on THP-1 macrophages (0.02 μM) was 14.6 ± 0.5 % of cell contents; in the test on THP-1 macrophages (2.5 μM), 17.1 ± 0.6 % of cell contents; in test [1] (acceptor 10 μg/ml apoA-I, DMSO control 6.4 ± 0.3), 10.3 ± 0.4 % of cell contents; in test [1] (acceptor 25 μg/ml HDL, DMSO control 14.9 ± 0.5) it was 18.6 ± 0.7 % of cell contents.
